Results published in patent publication US11149036B2, “3-(1H-pyrazol-4-yl)pyridine allosteric modulators of the M4 muscarinic acetylcholine receptor” (Merck Sharp & Dohme Corp., priority 2017, dated 2021).

Molecular target: T1, human M4 muscarinic acetylcholine receptor (Homo sapiens, UniProt P08173)
T1 construct: expressed in transfected cells; host or cells: CHO-K1
T1 sequence (P08173 1-479): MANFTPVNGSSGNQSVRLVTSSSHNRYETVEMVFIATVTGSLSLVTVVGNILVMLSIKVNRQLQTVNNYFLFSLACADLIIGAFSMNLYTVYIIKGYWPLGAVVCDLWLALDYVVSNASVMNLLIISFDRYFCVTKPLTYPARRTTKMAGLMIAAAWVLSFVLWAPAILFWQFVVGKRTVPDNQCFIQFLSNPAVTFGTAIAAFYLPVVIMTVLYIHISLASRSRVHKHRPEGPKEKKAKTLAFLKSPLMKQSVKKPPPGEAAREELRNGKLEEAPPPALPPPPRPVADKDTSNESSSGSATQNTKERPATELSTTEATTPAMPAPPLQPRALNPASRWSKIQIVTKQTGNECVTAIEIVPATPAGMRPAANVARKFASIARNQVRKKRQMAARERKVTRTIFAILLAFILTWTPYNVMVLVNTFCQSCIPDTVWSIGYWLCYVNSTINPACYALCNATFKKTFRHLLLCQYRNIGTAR
Test: human FLIPR-based M4 PAM assay (CHO-K1 cells with human M4 receptor and Gaqi5, calcium dye fluorescence)
Format: cell-based
Details: inflection point (IP) of dose response curve, acetylcholine added at 20% of maximum response, read-out: M4 FLIPPR Hu IP
Protocol: (§1) In a typical experiment the M4 muscarinic acetylcholine receptor modulating activity of the compounds of the present invention was determined in accordance with the following experimental method. CHO-K1 cells stably transfected with human M4 receptor and chimeric G-protein Gaqi5 (Coward P, et al., Analytical Biochemistry, 270:242-248 (1999)) are thawed from liquid N2 storage, resuspended in growth medium, plated in black, clear bottom 384 well plates, and incubated 16-20 hours at 37° C., 5% CO2. On the day of assay, growth medium is removed, the cells are washed 2 times with wash buffer, and cells are incubated in dye loading buffer at 37° C., 5% CO2 for ˜1 hour. Following dye loading the cell plates are placed in a FLIPR Tetra instrument and while monitoring dye fluorescence (excitation 470-495 […]), 10 uL of test substance at increasing concentrations is added, and fluorescence values are recorded for 4 min. Next, 10 uL of acetylcholine is added (final concentration calculated so as to achieve 20% of the maximum acetycholine response), and the fluorescence reading is continued for 3.5 min. In some cases, a third addition of acetylcholine (final concentration calculated to achieve 70% of the maximal acetylcholine response) is performed. The resulting dose response curves are fit to a 4 parameter logistic equation and the final result is determined as the inflection point (IP) of the curve
as §1, with “CHO-K1” for “In a typical experiment the M4 muscarinic acetylcholine receptor modulating activity of the compounds of the present invention was determined in accordance with the following experimental method. CHO-K1”, “Gaqi5” for “Gaqi5 (Coward P, et al., Analytical Biochemistry, 270:242-248 (1999))”, “performed.” for “performed. The resulting dose response curves are fit to a 4 parameter logistic equation and the final result is determined as the inflection point (IP) of the curve”

| Compound | EC50 [nM] |
| --- | --- |
| Cc1ccc(-c2cnn(CC3CCCC3)c2)c(-c2ccc(CCCO)cc2)n1 [Example 8, 3-(4-(3-(1-(cyclopentylmethyl)-1H-pyrazol-4-yl)-6-methylpyridin-2-yl)phenyl)propan-1-ol] | 54 |
| Cc1ccc(-c2cnn(CC3CCCC3)c2)c(-c2ccc3c(c2)nc(Cl)n3C)n1 [Example 152, 2-chloro-5-(3-(1-(cyclopentylmethyl)-1H-pyrazol-4-yl)-6-methylpyridin-2-yl)-1-methyl-1H-benzo[d]imidazole] | 80 |
| Cc1nc2cc(-c3nc(C#N)ccc3-c3cnn(CC4(F)CCCC4)c3)cnc2n1C [Example 63, 6-(2,3-dimethyl-3H-imidazo[4,5-b]pyridin-6-yl)-5-(1-((1-fluorocyclopentyl)methyl)-1H-pyrazol-4-yl)picolinonitrile] | 63 |
| Cc1ccc(-c2cnn(CC3(F)CCCC3)c2)c(-c2ccc3c(c2)C(=O)N(C2CC2)C3)n1 [Example 20, 2-cyclopropyl-6-(3-(1-((1-fluorocyclopentyl)methyl)-1H-pyrazol-4-yl)-6-methylpyridin-2-yl)isoindolin-1-one] | 24 |
| COc1cc2ccc(-c3nc(C(F)F)ccc3-c3cnn(C[C@H]4CC[C@H](F)C4)c3)cc2nn1 [Example 123, 7-(6-(difluoromethyl)-3-(1-(((1S,3S)-3-fluorocyclopentyl)methyl)-1H-pyrazol-4-yl)pyridin-2-yl)-3-methoxy-cinnoline] | 63 |
| N#Cc1ccc(-c2cnn(CC3CCCC3)c2)c(-c2ccc3ccnn3c2)n1 [Example 38, 5-(1-(cyclopentylmethyl)-1H-pyrazol-4-yl)-6-(pyrazolo[1,5-a]pyridin-6-yl)picolinonitrile] | 13 |
| Cc1ccc(-c2cnn(CC3CCC(F)(F)C3)c2)c(-c2ccc3cccnc3c2)n1 (stereo not shown) [Example 28, 7-(3-(1-((3,3-difluorocyclopentyl)methyl)-1H-pyrazol-4-yl)-6-methylpyridin-2-yl)quinoline] | 40 |
| CC1(Cn2cc(-c3ccc(C#N)nc3-c3ccc4cc(F)nnc4c3)cn2)CCCC1 [Example 128, 6-(3-fluorocinnolin-7-yl)-5-(1-((1-methylcyclopentyl)methyl)-1H-pyrazol-4-yl)picolinonitrile] | 35 |
| N#Cc1ccc(-c2cnn(C[C@H]3CC[C@H](F)C3)c2)c(-c2ccc3cccnc3c2)n1 [Example 68, 5-(1-(((1S,3S)-3-fluorocyclopentyl)methyl)-1H-pyrazol-4-yl)-6-(quinolin-7-yl)picolinonitrile] | 38 |
| Cc1nc2cc(-c3nc(C#N)ccc3-c3cnn(CC4(F)CCCC4)c3)ccc2o1 [Example 49, 5-(1-((1-fluorocyclopentyl)methyl)-1H-pyrazol-4-yl)-6-(2-methylbenzo[d]oxazol-5-yl)picolinonitrile] | 107 |
| Cc1ccc(-c2cnn(CC3(F)CCCC3)c2F)c(-c2cnc3c(c2)ncn3C)n1 [Example 23, 6-(3-(5-fluoro-1-((1-fluorocyclopentyl)methyl)-1H-pyrazol-4-yl)-6-methylpyridin-2-yl)-3-methyl-3H-imidazo[4,5-b]pyridine] | 121 |
| Cc1ccc(-c2cnn(CC3CCCC3)c2)c(-c2ccc3oc(C)nc3c2)n1 [Example 11, 5-(3-(1-(cyclopentylmethyl)-1H-pyrazol-4-yl)-6-methylpyridin-2-yl)-2-methylbenzo[d]oxazole] | 46 |
| Cc1nc2cc(-c3nc(C#N)ccc3-c3cnn(CC4(F)CCCC4)c3)ccc2n1C [Example 59, 6-(1,2-dimethyl-1H-benzo[d]imidazol-5-yl)-5-(1-((1-fluorocyclopentyl)methyl)-1H-pyrazol-4-yl)picolinonitrile] | 43 |
| COc1cc2ccc(-c3nc(Cl)c(C)cc3-c3cnn(CC4(C)CCCC4)c3)cc2nn1 [Example 119, 7-(6-chloro-5-methyl-3-(1-((1-methylcyclopentyl)methyl)-1H-pyrazol-4-yl)pyridin-2-yl)-3-methoxycinnoline] | 5 |
| Cc1ccc(-c2cnn(C[C@H]3CC[C@H](F)C3)c2)c(-c2ccc3cccnc3c2)n1 (single isomer, unassigned) [Example 131, 7-(3-(1-(((1S,3S) or (1R,3R)-3-fluorocyclopentyl)methyl)-1H-pyrazol-4-yl)-6-methylpyridin-2-yl)quinoline] | 31 |
| N#Cc1ccc(-c2cnn(CC3(F)CCCC3)c2)c(-c2ccn3ncnc3c2)n1 [Example 43, 6-([1,2,4]triazolo[1,5-a]pyridin-7-yl)-5-(1-((1-fluorocyclopentyl)methyl)-1H-pyrazol-4-yl)picolinonitrile] | 29 |
| N#Cc1nc(-c2ccn3cc(C(F)(F)F)nc3c2)c(-c2cnn(CC3(F)CCCC3)c2)cc1F [Example 91, 3-fluoro-5-(1-((1-fluorocyclopentyl)methyl)-1H-pyrazol-4-yl)-6-(2-(trifluoromethyl)imidazo [1,2-a]pyridin-7-yl)picolinonitrile] | 33 |
| Cc1ccc(-c2cnn(CC3CCCC3)c2)c(-c2ccc3cc(N)nnc3c2)n1 [Example 158, 7-(3-(1-(cyclopentylmethyl)-1H-pyrazol-4-yl)-6-methylpyridin-2-yl)cinnolin-3-amine] | 19 |
| CC1(Cn2cc(-c3ccc(C#N)nc3-c3ccc4cc(CO)nnc4c3)cn2)CCCC1 [Example 163, 6-(3-(hydroxymethyl)cinnolin-7-yl)-5-(1-((1-methylcyclopentyl)methyl)-1H-pyrazol-4-yl)picolinonitrile] | 46 |
| Cc1cn2ccc(-c3ncccc3-c3cnn(CC4C[C@@H](F)[C@H](F)C4)c3)cc2n1 [Example 5, 7-(3-(1-(((3R,4R)-3,4-difluorocyclopentyl)methyl)-1H-pyrazol-4-yl)pyridin-2-yl)-2-methylimidazo[1,2-a]pyridine] | 87 |
| N#Cc1ccc(-c2cnn(CC3(F)CCCC3)c2)c(-c2ccn3cc(C(F)F)nc3c2)n1 [Example 58, 6-(2-(difluoromethyl)imidazo [1,2-a]pyridin-7-yl)-5-(1-((1-fluorocyclopentyl)methyl)-1H-pyrazol-4-yl)picolinonitrile] | 15 |
| Cc1nc2ccc(-c3nc(C#N)ccc3-c3cnn(CC4(F)CCCC4)c3)cn2n1 [Example 60, 5-(1-((1-fluorocyclopentyl)methyl)-1H-pyrazol-4-yl)-6-(2-methyl-[1,2,4]triazolo[1,5-a]pyridin-6-yl)picolinonitrile] | 110 |
| CCc1cn2ccc(-c3nc(C#N)ccc3-c3cnn(CC4(F)CCCC4)c3)cc2n1 [Example 57, 6-(2-ethylimidazo[1,2-a]pyridin-7-yl)-5-(1-((1-fluorocyclopentyl)methyl)-1H-pyrazol-4-yl)picolinonitrile] | 16 |
| Cc1cc(-c2cnn(CC3(F)CCCC3)c2)c(-c2ccn3ccnc3c2)nc1F [Example 94, 7-(6-fluoro-3-(1-((1-fluorocyclopentyl)methyl)-1H-pyrazol-4-yl)-5-methylpyridin-2-yl) imidazo[1,2-a]pyridine] | 35 |
| CC1(Cn2cc(-c3cc(F)c(F)nc3-c3ccn4ccnc4c3)cn2)CCCC1 [Example 137, 7-(5,6-difluoro-3-(1-((1-methylcyclopentyl)methyl)-1H-pyrazol-4-yl)pyridin-2-yl)imidazo[1,2-a]pyridine] | 21 |
| Cc1ccc(-c2cnn(CC3CCC(F)(F)C3)c2)c(-c2ccc3cccnc3c2)n1 (single isomer, unassigned) [Example 129, (S or R)-7-(3-(1-((3,3-difluorocyclopentyl)methyl)-1H-pyrazol-4-yl)-6-methylpyridin-2-yl)quinoline] | 22 |
| Cn1cc2ccc(-c3nc(C#N)ccc3-c3cnn(CC4(F)CCCC4)c3)cc2n1 [Example 48, 5-(1-((1-fluorocyclopentyl)methyl)-1H-pyrazol-4-yl)-6-(2-methyl-2H-indazol-6-yl)picolinonitrile] | 41 |
| COc1cc2ccc(-c3nc(C)ccc3-c3cnn(CC4CCC5(CC5)C4)c3)cc2nn1 (stereo not shown) [Example 145, 3-methoxy-7-(6-methyl-3-(1-(spiro[2.4]heptan-5-ylmethyl)-1H-pyrazol-4-yl)pyridin-2-yl)cinnoline] | 92 |
